In data set [1] the test system is normal 3T3 mouse fibroblasts. The following applies: 0.165-100 nM, 3 hours exposure, then 93 hours, MTS. The protocol:
(§1) FIG. 2A depicts the viability of HCC1806 and BT-549 TNBC cell lines as well as normal 3T3 mouse fibroblasts in presence of peptide drug conjugate OTS-P22 at increasing concentrations (Log 0.165-100 nM). Cells were plated at 10,000 cells/well on 96-well plates in RPMI or DMEM medium (pH 7.4) with 10% FBS or 10% BCS and after attachment they were washed and incubated with OTS-P22 in complete medium without antibiotics for 3 hours. After 3 hours, cells were washed and then incubated in complete medium without antibiotics for an additional 93 hours. At the end of the incubation period cells were washed and cell viability was measured using MTS assay according to the manufacturer's instructions (Promega, Madison, WI). Data shown are percentage mean value and standard error of triplicate measurements. Differences between mean values were evaluated by one-way ANOVA followed by Tukey's honestly significant difference procedure. **<0.01 were highly significant.

Data set [2] deals with caspase activity in HCC1806 cells. The following applies: 100 nM, 48 hours.
Method: At the end of the incubation, cells were washed three times, lyzed and proteins quantified using Bradford reagents. Apoptosis assay was performed using 100 μg proteins according to ApoTarget Caspase Colorimetric Protease Assay Sampler Kit instructions (Invitrogen, Carlsbad, CA).
Data set [3] can be described thus: In-vitro potency of LHRH-based drug conjugates (summary statement). The following applies: cell line not stated.
Data set [4] can be described thus: In-vitro stability in human plasma (RP-HPLC/mass spectrometry). It is filed as in vitro ADME. The method, then:
FIGS. 7A, 7B, 7C and 7D depicts the in-vitro stability of OTS-P23 in human plasma at 0, 2, 8 and 24 hours incubation times respectively in accordance with a preferred embodiment of the present invention. OTS-P23 is incubated at 100 μg/100 μl in 80% plasma from human or for 0, 2, 8 or 24 hours. Solutions are then centrifuged using Amicon centrifugal devices (cut-off 10 KDa) and 20 μl of the lower molecular weight fractions are analyzed by RP-HPLC/mass spectrometry. […] A minor peak (2.26%) was detected with a molecular weight of 2240.3 Dalton (metabolite).
FIGS. 13A, 13B, 13C and 13D depicts the in-vitro stability of OTS-P28 in human plasma at 0, 2, 8 and 24 hours incubation times respectively in accordance with a preferred embodiment of the present invention. OTS-P23 is incubated at 100 μg/100 μl in 80% plasma from human or for 0, 2, 8 or 24 hours. Solutions are then centrifuged using Amicon centrifugal devices (cut-off 10 KDa) and 20 μl of the lower molecular weight fractions are analyzed by RP-HPLC/mass spectrometry. […] A minor peak (2.26%) was detected with a molecular weight of 2240.3 Dalton (metabolite).

The nature of data set [5]: Animal weight, hematology and normal organ histology in treated SCID mice. The conditions noted are these: for effect on animal weight: single i.v. injection 0.5 μmol/kg, SCID mice bearing HCC1806. It is filed as in vivo. From the text: FIG. 4B depicts animal weight in female SCID mice bearing HCC1806 TNBC CDX during treatment with saline; OTS-P22 or MMAE at a single i.v. injection of 0.5 μmol/kg on day 0 (arrow). […] are presented as mean±standard error of 10 mice per group.
FIG. 5A depict hematology parameters of saline- and OTS-P22 treated SCID mice bearing HCC1806 TNBC xenografts (n=10) as described in FIG. 4A and into in accordance with the preferred embodiment of the present invention;
FIG. 5B depict representative hematoxylin-eosin staining slides of normal organs from saline- and OTS-P22 treated SCID mice bearing HCC1806 TNBC xenografts as described in FIG. 4A and into in accordance with the preferred embodiment of the present invention;

The next data set relates to HCC1806 TNBC CDX. As to the kind of experiment: Tumor growth of HCC1806 xenografts in female SCID mice. It is filed as in vivo. The method, then:
FIG. 4A depicts tumor volume in female SCID mice bearing HCC1806 TNBC CDX during treatment with saline; OTS-P22 or MMAE at a single i.v. injection of 0.5 μmol/kg on day 0 (arrow). Tumor volume values in mm^3 are presented as mean±standard error of 10 mice per group. Statistical analysis was performed using ANOVA followed by Tukey's multiple comparison test. ***<0.001, **<0.01, *<0.05 were significant.

Another data set has as its system HCC1806 TNBC cell line. As to the kind of experiment: MTS proliferation (viability) assay, HCC1806. It is filed as cell-based, human. The method, then: as §1

“And” between values parts separate entries of the source, which are not always exact repeats. Identical values can stand only once. “Also recorded” adds a separate entry of the source. Numbered stars: 1 amine (or outer) side, 2 acyl side, 3 side chain; on linkers, the order of the positions; unused ones are H or OH. Bridge positions count the residues as written; N and C are the ends. Square brackets hold non-standard residues; d marks the D form. Peptide text beside a SMILES is read from it. I, II: the chains in the order shown. * marks the point of attachment. X1 = O=C([C@@H](CCCCn1nnc2c1-c1ccccc1N([*:3])Cc1ccccc1-2)N[*:1])[*:2]; Dolaproine = CO[C@@H]([C@@H]1CCCN1)[C@@H](C)C(=O)O; X3 = O=C(CCC(=O)[*:1])NCCOCCOCCOCCC(=O)[*:2]; Dil = CC[C@H](C)[C@H](NC)[C@@H](CC(=O)O)OC; PABC = O=C(OCc1ccc(N[*:1])cc1)[*:2]; X2 = C[C@@H](N*)[C@@H](O)c1ccccc1; d3Pal = N[C@H](Cc1cccnc1)C(=O)O; Cit = NC(=O)NCCC[C@H](N)C(=O)O; pGlu = O=C1CC[C@@H](C(=O)O)N1; NMeV = CN[C@H](C(=O)O)C(C)C

On to `CC[C@H](C)[C@@H]([C@@H](CC(=O)N1CCC[C@H]1[C@H](OC)[C@@H](C)C(=O)N[C@H](C)[C@@H](O)c1ccccc1)OC)N(C)C(=O)[C@@H](NC(=O)[C@H](C(C)C)N(C)C(=O)OCc1ccc(NC(=O)[C@H](CCCNC(N)=O)NC(=O)[C@@H](NC(=O)CCOCCOCCOCCNC(=O)CCC(=O)N2Cc3ccccc3-c3nnn(CCCC[C@@H](NC(=O)[C@H](Cc4ccc(O)cc4)NC(=O)[C@H](CO)NC(=O)[C@@H](Cc4cccnc4)NC(=O)[C@H](Cc4c[nH]cn4)NC(=O)[C@@H]4CCC(=O)N4)C(=O)N[C@@H](CC(C)C)C(=O)N[C@@H](CCCNC(=N)N)C(=O)N4CCC[C@H]4C(=O)N[C@H](C)C(N)=O)c3-c3ccccc32)C(C)C)cc1)C(C)C` [OTS-P22, Glp-His-DPal-Ser-Tyr-DLys[dPEG3-Val-Cit-PABC-MMAE]-Leu-Arg-Pro-DAla-NH2] (I: [pGlu]H[d3Pal]SY[X1]LRP[dA]-NH2 / II: V[Cit][PABC][NMeV]V[Dil][Dolaproine]-X2; linker I:6-II:N via X3), for which the “effect on viability of 3T3 normal fibroblasts” value in data set [1] is listed as “no effect”. For the same compound, the “increase of caspase activity as compared to saline-treated cells” value in data set [2] is 1.5 fold. The “in-vitro potency (in words)” value in data set [3] is “higher potency at low nanomolar concentrations”. Besides, in data set [4] (80% human plasma, 8 hours incubation), the “minor peak (metabolite, 2240.3 Dalton)” value was 2.26%. In addition, the conjugate still intact in data set [4] (80% human plasma, 8 hours incubation, 100 μg/100 μl) is 97.74%. Moreover, the remaining at 8 h, 100 μg/100 μl in data set [4] (80% human plasma, 8 hours incubation, 100 μg/100 μl, read-out: conjugate still intact) came out at 97.7%. For the same compound, in data set [5] (SCID mice bearing HCC1806 xenografts), the effect on hematology entry is given as “No signifcant effect”. The “effect on normal tissue histology” value in data set [5] (SCID mice bearing HCC1806 xenografts, hematoxylin-eosin) is listed as “No signifcant effect”. In addition, the “effect on animal weight” value in data set [5] is on record as “No signifcant effect; also recorded: Neither treatment with OTS-P22 or MMAE affected animal weight”. In the data set with HCC1806 TNBC CDX (compared with first generation conjugate AEZS-108), the “potency relative to AEZS-108 in term of in-vivo tumor growth inhibition of HCC1806 xenografts” value is on record as “at least 16 times”. In the data set with HCC1806 TNBC CDX (single i.v. 0.5 μmol/kg, 21 days, 80.5% in 2/10 mice, 88.5% in 1/10 mice), the partial response was 80.5% and 88.5%. The same compound registered a tumor growth inhibition with HCC1806 TNBC CDX (single i.v. injection 0.5 μmol/kg (1.435 mg/kg), 21 days post-treatment, SCID mice) of 100%. Further, in the data set with HCC1806 TNBC CDX (single i.v. injection 0.5 μmol/kg, 21 days post-treatment, 10 mice per group), the “mice showing complete response” value was 7/10.

For the compound “Glp-His-Trp-DSer-Tyr-DLys[-dPEG5-Val-Cit-PABC-MMAE]-Leu-Arg-Pro-NHEt [OTS-P23b]”, the “in-vitro potency (in words)” value in data set [3] was “higher potency at low nanomolar concentrations”.

“Glp-DHis-Trp-DSer-Tyr-DLys[Glut-Val-Cit-PABC-MMAE]-Leu-Arg-Pro-DAla-NH2 [OTS-P31]”: the “in-vitro potency (in words)” value in data set [3] was “higher potency at low nanomolar concentrations”.

Consider “Glp-His-DPal-Ser-Tyr-DCys[Val-Cit-PABC-MMAE]-Leu-Arg-Pro-DAla-NH2 [OTS-P26]”, for which, in the data set on HCC1806 TNBC cell line (MTS proliferation assay), the “effect on viability of HCC1806 TNBC cells (in words)” value is “dose-dependent manner”. For the same compound, in data set [3], the “in-vitro potency (in words)” value is “higher potency at low nanomolar concentrations”.

Consider “Glp-His-DPal-Ser-Tyr-DCys[dPEG8-Val-Cit-PABC-MMAE]-Leu-Arg-Pro-DAla-NH2 [OTS-P28]”, for which the “anti-proliferative activity in-vitro on HCC1806 TNBC cell line (in words)” value with HCC1806 TNBC cell line was “low nanomolar concentrations”. For the same compound, the “in-vitro potency (in words)” value in data set [3] is given as “higher potency at low nanomolar concentrations”. The “stability in human plasma (in words)” value in data set [4] (human plasma) is given as “highly stable”.

On to `CC[C@H](C)[C@@H]([C@@H](CC(=O)N1CCC[C@H]1[C@H](OC)[C@@H](C)C(=O)N[C@H](C)[C@@H](O)c1ccccc1)OC)N(C)C(=O)[C@@H](NC(=O)[C@@H](NC)C(C)C)C(C)C` [MMAE, monomethyl auristatin E, reference compound] (H-[NMeV]V[Dil][Dolaproine]-X2), for which the “effect on animal weight” value in data set [5] was “Neither treatment with OTS-P22 or MMAE affected animal weight”. The “effect on tumor growth (in words)” value in the data set with HCC1806 TNBC CDX (single i.v. injection 0.5 μmol/kg, end of 21 days study) is listed as “did not show any significant tumor growth inhibition; also recorded: no significant effect”.

For the compound “Glp-His-DPal-Ser-Tyr-DLys[dPEG8-Val-Cit-PABC-MMAE]-Leu-Arg-Pro-DAla-NH2 [OTS-P23]”, the “in-vitro potency (in words)” value in data set [3] is “higher potency at low nanomolar concentrations”.

The values are drawn from patent publication US20240082409A1, “Modified peptide ligands for stable delivery of highly potent payloads to tumors: Method of making and using same” (priority 2020, published 2024).
